Publication PMC5797143, “Epigenetic modulation of inflammation and synaptic plasticity promotes resilience against stress in mice” (Nature Communications, 2018)

Columns and labels:
[1] = system: CpG-rich sequences of mouse IL-6 promoter and introns 1, 3; experiment: CpG-free luciferase reporter with IL-6 promoter/intron CpG-rich segments in N2a cells; assay type: cell-based; conditions: 24 h
Method: To investigate how DHCA may attenuate IL-6 generation, we tested the effect of DHCA on Toll-like receptor-4 mediated signaling pathways. PBMCs were pretreated with DHCA and stimulated with LPS using the same protocol as during screening. Samples were taken at 0, 30 min, 60 min, 6 h and 16 h following LPS stimulation and cell lysates were subjected to a multiplex ELISA assay. […] Based on evidence that DNA methylation at a single CpG in the human IL-6 promoter region effectively alters IL-6 expression, we next tested whether DHCA can modulate IL-6 gene expression through methylation mechanisms. We treated PBMC cells with DHCA and measured the expression of enzymes essential for DNA methylation/demethylation. […] To investigate how methylation influences IL-6 gene expression, we employed the CpG-free luciferase reporter system. We cloned a ~280 bp CpG rich DNA segment from the mouse IL-6 promoter into a promoterless CpG-free reporter construct and transfected into N2a cells. We found the CpG-rich IL-6 promoter segment presented no inherent promoter activity as reflected by no differences in luciferase activity compared to the control construct (Fig. 2f). […] We then cloned CpG rich DNA segments from IL-6 introns 1, 3 or 4 into the CpG-free luciferase reporter construct with a minimal EF1 promoter and no enhancer activity. […] In contrast, the CpG-rich region of IL-6 intron 4 presented no observable enhancer activity (Fig. 2g). […] To test whether DHCA may influence the expression of other pro-inflammatory factors, we measured the level of secreted cytokines following LPS stimulation (Supplementary Fig. 3).
CpG-rich motif from mouse IL-6 promoter and intron 1, intron 3, and intron 4 were cloned into basic (no promoter or enhancer) or promoter (minimal EF1 promoter with no enhancer) pCpG-free Lucia plasmid (InvivoGen) using In-Fusion Cloning Kit (Clontech Laboratories). Plasmids were prepared in E. coli GT115 cells and expressed in N2A neuoblastoma cells using lipofectamine 2000 (ThermoFisher) according to manufacturer’s instruction. Following overnight recovery, cells were subjected to 5 µM of methylation inhibitor 5-Aza-2′-deoxycytidine (AZA-DC) or DHCA treatment. Twenty-four hours later, 10 µl of medium was incubated with 50 µl of QUANTI-Luc luciferase substrate for luciferase activity assessment.

[2] = system: stress susceptible C57BL/6 mice after RSDS; experiment: RSDS, therapeutic treatment of susceptible mice; assay type: in vivo, mouse; conditions: Imipramine 20 mg/kg-BW/day i.p. for 35 days
Source text: To test the therapeutic efficacy of DHCA/Mal-gluc, we induced depression-like behavior using two different methods. In the first set of studies, mice were subjected to RSDS followed by SI test. All susceptible mice with SI ratio <0.8 were randomly grouped into vehicle or DHCA/Mal-gluc group. Following two weeks treatment, all mice were subjected to SI re-testing without further stress exposure (Fig. 5a). […] In a parallel study to compare the treatment efficacy with the tricylic antidepressant Imipramine, we treated the susceptible mice with Imipramine through i.p. injection for 35 days. […] We then examined the effect of DHCA/Mal-gluc on RSDS-induced anhedonia and an ethologically relevant self-neglect phenotype. […] We next measured the levels of IL-6 in plasma and Rac1 in the NAc after behavioral testing. […]
All social interaction (SI) tests were performed under red-light conditions. […] Their movements were automatically monitored and recorded (Ethovision 3.0; Noldus Information Technology) for 2.5 min in the absence (target absent phase) of a novel CD-1 mouse and followed by 2.5 min exploratory behavior in the presence of a caged CD-1 mouse (target present phase). SI behavior was then calculated as a ratio of the time spent in the interaction zone with the target present divided by the time spent in the interaction zone with the target absent. […]

[3] = in vivo, po; cited from earlier work

| Compound | Detection in Brain [3] | Detection in Plasma [3] | further results |
| --- | --- | --- | --- |
| Nc1ncn([C@H]2C[C@H](O)[C@@H](CO)O2)c(=O)n1 [AZA-DC, 5-aza-2′-deoxycytidine] | – | – | luciferase expression, CpG-rich IL-6 promoter segment ([1]; 5 µM): no effect; luciferase (enhancer) activity, IL-6 intron 1 [1]: partially reduced; luciferase (enhancer) activity, IL-6 intron 3 [1]: totally abolished |
| CN(C)CCCN1c2ccccc2CCc2ccccc21 [Imipramine] | – | – | susceptible mice with resilient phenotype upon retesting [2]: about 50% |
| OMe-quercetin-glucuronide | + | + | – |
| OMe-resveratrol-glucuronide | + | + | – |
| quercetin-glucuroide | + | + | – |
| resveratrol-glucuronide | + | + | – |
